ChEMBL document CHEMBL1201862, “PubChem BioAssay data set” (2004)
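Interpolation was linear, between the two tested concentrations surrounding the appropriate level; five concentrations were tested over 48 hours in 96-well plates. The concentration for 50% growth inhibition is given as GI50.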 The source made the active and inactive calls. Cut-off read from the data, not from the text of the source: active = GI50 up to about 1.1 µM and inactive = higher.

Assays:
Assay in all cases: inhibition of tumour cell growth, NCI panel, 48 h
OVCAR-8 = test system: OVCAR-8
HCT-15 = test system: HCT-15
T47D = test system: T47D
M14 = test system: M14
NCI-H23 = test system: NCI-H23
SN12C = test system: SN12C
SK-MEL-5 = test system: SK-MEL-5
U-251 = test system: U-251
OVCAR-3 = test system: OVCAR-3
TK-10 = test system: TK-10
Hs-578T = test system: Hs-578T
ACHN = test system: ACHN
CAKI-1 = test system: CAKI-1
BT-549 = test system: BT-549
SF-295 = test system: SF-295
EKVX = test system: EKVX
Malme-3M = test system: Malme-3M
CCRF-CEM = test system: CCRF-CEM
UACC-257 = test system: UACC-257
SW-620 = test system: SW-620
SNB-75 = test system: SNB-75
RXF 393 = test system: RXF 393
NCI-H460 = test system: NCI-H460
SF-539 = test system: SF-539
SK-MEL-2 = test system: SK-MEL-2
MDA-MB-435 = test system: MDA-MB-435
COLO 205 = test system: COLO 205
MDA-MB-231 = test system: MDA-MB-231
HT-29 = test system: HT-29
RPMI-8226 = test system: RPMI-8226
KM12 = test system: KM12
MDA-N = test system: MDA-N
SK-OV-3 = test system: SK-OV-3
HCT-116 = test system: HCT-116
DU-145 = test system: DU-145
IGROV-1 = test system: IGROV-1
786-0 = test system: 786-0
PC-3 = test system: PC-3
HOP-62 = test system: HOP-62
SF-268 = test system: SF-268
NCI-H226 = test system: NCI-H226
LOX IMVI = test system: LOX IMVI
NCI-H522 = test system: NCI-H522
OVCAR-5 = test system: OVCAR-5
K562 = test system: K562
A549 = test system: A549
MCF7 = test system: MCF7
MOLT-4 = test system: MOLT-4
UO-31 = test system: UO-31
SNB-19 = test system: SNB-19
NCI/ADR-RES = test system: NCI/ADR-RES
SK-MEL-28 = test system: SK-MEL-28
HCC 2998 = test system: HCC 2998
SR = test system: SR
OVCAR-4 = test system: OVCAR-4

Q: With N#Cc1nc(CCN2C(=O)c3ccccc3C2=O)oc1N as the compound, how does the GI50 (OVCAR-8) read?
A: > 100 µM (inactive)

Q: What about the GI50 (HCT-15) of the same compound?
A: > 100 µM

Q: What about the GI50 (T47D) of the same compound?
A: > 100 µM (inactive)

Q: And the GI50 (M14)?
A: > 100 µM (inactive)

Q: And the GI50 (NCI-H23)?
A: > 100 µM (inactive)

Q: And the GI50 (SN12C)?
A: > 100 µM (inactive)

Q: What about the GI50 (SK-MEL-5) of the same compound?
A: > 100 µM (inactive)

Q: What about the GI50 (U-251) of the same compound?
A: > 100 µM (inactive)

Q: And the GI50 (OVCAR-3)?
A: > 100 µM (inactive)

Q: And the GI50 (TK-10)?
A: > 100 µM (inactive)

Q: What about the GI50 (Hs-578T) of the same compound?
A: > 100 µM (inactive)

Q: What about the GI50 (ACHN) of the same compound?
A: > 100 µM (inactive)

Q: And the GI50 (CAKI-1)?
A: > 100 µM (inactive)

Q: What about the GI50 (BT-549) of the same compound?
A: > 100 µM (inactive)

Q: And the GI50 (SF-295)?
A: > 100 µM (inactive)

Q: What about the GI50 (EKVX) of the same compound?
A: > 100 µM (inactive)

Q: What about the GI50 (Malme-3M) of the same compound?
A: > 100 µM (inactive)

Q: What about the GI50 (CCRF-CEM) of the same compound?
A: > 100 µM (inactive)

Q: And the GI50 (UACC-257)?
A: > 100 µM (inactive)

Q: And the GI50 (SW-620)?
A: > 100 µM (inactive)

Q: And the GI50 (SNB-75)?
A: < 0.01 µM (active)

Q: What about the GI50 (RXF 393) of the same compound?
A: > 100 µM (inactive)

Q: What about the GI50 (NCI-H460) of the same compound?
A: > 100 µM (inactive)

Q: And the GI50 (SF-539)?
A: > 100 µM (inactive)

Q: And the GI50 (SK-MEL-2)?
A: > 100 µM (inactive)

Q: And the GI50 (MDA-MB-435)?
A: > 100 µM (inactive)

Q: And the GI50 (COLO 205)?
A: > 100 µM (inactive)

Q: What about the GI50 (MDA-MB-231) of the same compound?
A: > 100 µM (inactive)

Q: What about the GI50 (HT-29) of the same compound?
A: > 100 µM (inactive)

Q: What about the GI50 (RPMI-8226) of the same compound?
A: > 100 µM (inactive)

Q: And the GI50 (KM12)?
A: 4.45 µM (inactive)

Q: What about the GI50 (MDA-N) of the same compound?
A: > 100 µM (inactive)

Q: And the GI50 (SK-OV-3)?
A: > 100 µM (inactive)

Q: And the GI50 (HCT-116)?
A: > 100 µM (inactive)

Q: And the GI50 (DU-145)?
A: > 100 µM (inactive)

Q: And the GI50 (IGROV-1)?
A: > 100 µM (inactive)

Q: And the GI50 (786-0)?
A: > 100 µM (inactive)

Q: And the GI50 (PC-3)?
A: > 100 µM (inactive)

Q: And the GI50 (HOP-62)?
A: > 100 µM (inactive)

Q: And the GI50 (SF-268)?
A: > 100 µM (inactive)

Q: And the GI50 (NCI-H226)?
A: > 100 µM (inactive)

Q: What about the GI50 (LOX IMVI) of the same compound?
A: > 100 µM (inactive)

Q: And the GI50 (NCI-H522)?
A: > 100 µM (inactive)

Q: What about the GI50 (OVCAR-5) of the same compound?
A: > 100 µM (inactive)

Q: What about the GI50 (K562) of the same compound?
A: > 100 µM (inactive)

Q: What about the GI50 (A549) of the same compound?
A: > 100 µM (inactive)

Q: And the GI50 (MCF7)?
A: > 100 µM (inactive)

Q: And the GI50 (MOLT-4)?
A: > 100 µM (inactive)

Q: What about the GI50 (UO-31) of the same compound?
A: > 100 µM (inactive)

Q: What about the GI50 (SNB-19) of the same compound?
A: > 100 µM (inactive)

Q: What about the GI50 (NCI/ADR-RES) of the same compound?
A: > 100 µM (inactive)

Q: And the GI50 (SK-MEL-28)?
A: > 100 µM (inactive)

Q: What about the GI50 (HCC 2998) of the same compound?
A: 0.0845 µM (active)

Q: What about the GI50 (SR) of the same compound?
A: > 100 µM (inactive)

Q: What about the GI50 (OVCAR-4) of the same compound?
A: > 100 µM (inactive)
